According to the supplement of paper PMC10331698:
± gives the standard deviation of the averaged measurements.

Assays:
Assay in all cases: level (log10 ratio to DMSO vehicle control); higher = higher biomarker level / cell amount than vehicle control
Details in all cases: in DMSO
[1] = compound: C=CC(=O)OCC(F)(F)C(F)(F)C(F)(F)C(F)(F)C(F)(F)C(F)(F)C(F)(F)F [1H,1H-Perfluorooctyl acrylate]
Protocol: (§1)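 BioMAP Diversity Plus panel of 12 human primary cell co-culture systems (3C, 4H, LPS, SAg, BT, BF4T, BE3C, CASM3C, HDF3CGF, KF3CT, MyoF, Mphg). Compounds were added 1 h before stimulation and left for 24 h (MyoF 48 h; BT 72 h for soluble read-outs or 6 d for IgG). Biomarkers were read by ELISA, cytotoxicity by SRB, PBMC viability and proliferation by Alamar Blue. Each well value was divided by the mean of 8 DMSO control wells on the same plate and log10 transformed; duplicate blinded samples were tested at 4 concentrations.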

[2] = compound: CCN(CCO)S(=O)(=O)C(F)(F)C(F)(F)C(F)(F)C(F)(F)C(F)(F)C(F)(F)C(F)(F)C(F)(F)F [N-Ethyl-N-(2-hydroxyethyl)perfluorooctanesulfonamide]
Protocol: as §1

[3] = compound: COC(=O)CCC(F)(F)C(F)(F)C(F)(F)C(F)(F)F [Methyl 2H,2H,3H,3H-perfluoroheptanoate]
Protocol: as §1

Perfluoro-1-iodohexane = compound: FC(F)(F)C(F)(F)C(F)(F)C(F)(F)C(F)(F)C(F)(F)I [Perfluoro-1-iodohexane]
Protocol: as §1

[4] = compound: NCC(F)(F)C(F)(F)C(F)(F)C(F)(F)C(F)(F)C(F)(F)C(F)(F)F [1H,1H-Perfluorooctylamine]
Protocol: as §1

[5] = compound: O=C(O)C(F)(F)C(F)(F)C(F)(F)OC(F)(C(F)(F)F)C(F)(F)F [Perfluoro-4-isopropoxybutanoic acid]
Protocol: as §1

[6] = compound: OCC(F)(F)OC(F)(F)C(F)(F)OC(F)(F)CO [1H,1H,8H,8H-Perfluoro-3,6-dioxaoctane-1,8-diol]
Protocol: as §1

Test System | level (log10) ([1]; 6700 nM) | level (log10) ([1]; 20000 nM) | level (log10) ([1]; 60000 nM) | level (log10) ([2]; 6700 nM) | level (log10) ([2]; 20000 nM) | level (log10) ([3]; 6700 nM) | level (log10) ([3]; 20000 nM) | level (log10) ([3]; 60000 nM) | level (log10) (Perfluoro-1-iodohexane; 6700 nM) | level (log10) (Perfluoro-1-iodohexane; 20000 nM) | level (log10) (Perfluoro-1-iodohexane; 60000 nM) | level (log10) ([4]; 6700 nM) | level (log10) ([4]; 20000 nM) | level (log10) ([4]; 60000 nM) | level (log10) ([5]; 6700 nM) | level (log10) ([5]; 20000 nM) | level (log10) ([5]; 60000 nM) | level (log10) ([6]; 6700 nM) | level (log10) ([6]; 20000 nM) | level (log10) ([6]; 60000 nM)
4H:CCL26/Eotaxin-3 | 0.002 ± 0.023 | -0.002 ± 0.0057 | -0.0005 ± 0.0021 | 0.077 ± 0.031 | -0.143 ± 0.14 | -0.0075 ± 0.0064 | 0.0175 ± 0.0078 | 0.0025 ± 0.005 | 0.014 ± 0.013 | 0.016 ± 0.017 | 0.016 ± 0.021 | 0.0225 ± 0.022 | 0.008 ± 0.0014 | 0.028 ± 0.023 | 0.0175 ± 0.042 | -0.023 ± 0.0057 | -0.0135 ± 0.00071 | 0.0015 ± 0.0021 | 0.0015 ± 0.0092 | -0.0035 ± 0.00071
BF4T:CD106/VCAM-1 | -0.0105 ± 0.0021 | -0.04 ± 0.0014 | -0.049 ± 0.011 | -0.039 ± 0.0085 | -0.0615 ± 0.0092 | -0.001 ± 0.02 | 0.002 ± 0.0028 | 0.0015 ± 0.0064 | -0.0055 ± 0.0035 | -0.0215 ± 0.0035 | -0.0745 ± 0.019 | 0.002 | 0.0045 ± 0.00071 | 0.0215 ± 0.032 | -0.042 | -0.035 ± 0.02 | -0.0065 ± 0.037 | -0.0125 ± 0.015 | -0.006 ± 0.027 | 0.0245 ± 0.053
4H:CD106/VCAM-1 | 0.0165 ± 0.036 | 0.032 ± 0.023 | 0.0225 ± 0.059 | 0.116 ± 0.021 | 0.0765 ± 0.0021 | -0.021 ± 0.0071 | 0.01 ± 0.035 | 0.011 ± 0.013 | 0.013 ± 0.03 | 0.01 ± 0.034 | 0.014 ± 0.068 | 0 ± 0.023 | -0.041 ± 0.027 | -0.034 ± 0.0085 | 0.0075 ± 0.011 | -0.019 ± 0.0028 | -0.011 ± 0.025 | 0.0145 ± 0.012 | -0.0105 ± 0.0021 | -0.0025 ± 0.015
BE3C:CD87/uPAR | -0.0045 ± 0.022 | 0.0205 ± 0.026 | 0.0315 ± 0.029 | 0.012 ± 0.016 | -0.024 ± 0.028 | -0.003 ± 0.0014 | -0.0005 ± 0.00071 | -0.0185 ± 0.022 | 0.0165 ± 0.018 | 0.0035 ± 0.00071 | 0.0465 ± 0.026 | 0.0025 ± 0.0021 | -0.0035 ± 0.012 | 0.008 ± 0.0099 | -0.016 ± 0.033 | 0.001 ± 0.031 | 0.0275 ± 0.035 | -0.001 ± 0.0099 | 0.0265 ± 0.016 | -0.0125 ± 0.005
BF4T:MMP-9 | 0.0065 ± 0.028 | 0.0035 ± 0.016 | 0.015 ± 0.033 | -0.012 ± 0.014 | -0.032 ± 0.0014 | 0.007 ± 0.034 | 0.0165 ± 0.047 | 0.012 ± 0.055 | -0.0005 ± 0.015 | -0.011 ± 0.0042 | -0.021 ± 0.034 | 0.0005 ± 0.0064 | -0.0105 ± 0.015 | 0.002 ± 0.0028 | 0.012 ± 0.0057 | 0.0275 ± 0.0064 | 0.058 ± 0.034 | -0.026 ± 0.047 | -0.0145 ± 0.025 | 0.01 ± 0.037
SAg:PBMC Cytotoxicity | -0.004 ± 0.017 | 0.0125 ± 0.053 | -0.0535 ± 0.071 | -0.039 ± 0.052 | -0.0865 ± 0.042 | 0.033 ± 0.021 | 0.029 ± 0.058 | 0.029 ± 0.057 | -0.025 ± 0.023 | -0.014 ± 0.0014 | -0.024 ± 0.028 | 0.032 ± 0.025 | 0.018 ± 0.013 | -0.129 ± 0.27 | 0.0225 ± 0.026 | 0.0245 ± 0.028 | 0.0425 ± 0.022 | 0.0055 ± 0.005 | 0.028 ± 0.089 | -0.033 ± 0.0042
LPS:CCL2/MCP-1 | -0.003 ± 0.017 | -0.0045 ± 0.005 | 0.005 ± 0.0099 | -0.017 ± 0.025 | -0.0535 ± 0.012 | -0.011 ± 0.013 | -0.013 ± 0.0071 | -0.0065 ± 0.00071 | -0.0025 ± 0.005 | -0.009 ± 0.0014 | 0.0015 ± 0.032 | -0.004 ± 0.031 | -0.024 ± 0.014 | -0.001 ± 0.0071 | -0.0045 ± 0.016 | 0.022 ± 0.025 | 0.0725 ± 0.0035 | -0.002 | -0.015 ± 0.0071 | 0.008 ± 0.0057
BF4T:Keratin 8/18 | 0.02 ± 0.0014 | 0.0005 ± 0.035 | -0.0035 ± 0.053 | -0.002 ± 0.0014 | -0.0005 ± 0.0021 | 0.007 ± 0.033 | 0.0285 ± 0.033 | 0.0225 ± 0.011 | -0.0075 ± 0.067 | -0.023 ± 0.016 | -0.015 ± 0.088 | -0.0065 ± 0.021 | -0.011 ± 0.014 | 0.0035 ± 0.00071 | -0.002 ± 0.0014 | -0.0115 ± 0.0021 | 0.0025 ± 0.011 | 0.004 ± 0.0085 | -0.0075 ± 0.018 | 0.0205 ± 0.00071
SAg:CD40 | -0.005 | -0.001 ± 0.0028 | -0.02 ± 0.035 | 0 ± 0.028 | -0.052 ± 0.023 | -0.042 ± 0.04 | -0.0415 ± 0.04 | -0.053 ± 0.065 | -0.019 ± 0.013 | -0.0195 ± 0.018 | 0.012 ± 0.061 | 0.001 ± 0.02 | -0.0115 ± 0.011 | -0.002 ± 0.011 | 0.0105 ± 0.023 | 0.0165 ± 0.005 | -0.008 ± 0.018 | -0.003 ± 0.0057 | 0.0095 ± 0.013 | 0.004 ± 0.0042
BF4T:IL-1alpha | -0.0075 ± 0.00071 | 0.0045 ± 0.0021 | -0.0125 ± 0.013 | 0.008 ± 0.016 | -0.0175 ± 0.015 | -0.0085 ± 0.00071 | -0.0185 ± 0.018 | 0 ± 0.021 | -0.0075 ± 0.005 | -0.0065 ± 0.012 | -0.004 ± 0.0057 | 0.001 ± 0.0057 | -0.0175 ± 0.0035 | 0.0065 ± 0.013 | -0.008 ± 0.018 | -0.0245 ± 0.015 | -0.012 ± 0.023 | -0.004 ± 0.0042 | -0.01 ± 0.0042 | 0.012 ± 0.0028
SAg:CD62E/E-Selectin | -0.0035 ± 0.0064 | -0.036 ± 0.0042 | -0.0335 ± 0.016 | 0.0625 ± 0.013 | 0.079 ± 0.016 | -0.014 ± 0.014 | -0.03 ± 0.0071 | 0.007 ± 0.0057 | -0.009 ± 0.0014 | 0.0055 ± 0.019 | 0.0095 ± 0.044 | -0.0135 ± 0.028 | -0.0055 ± 0.039 | 0 ± 0.011 | -0.0025 ± 0.0021 | 0.0125 ± 0.015 | -0.01 ± 0.023 | -0.0135 ± 0.0064 | -0.0185 ± 0.0064 | 0.0125 ± 0.044
4H:VEGFR2 | -0.0075 ± 0.0035 | 0.0045 ± 0.0064 | 0.0235 ± 0.019 | 0.0365 ± 0.0092 | 0.002 ± 0.0042 | 0.0325 ± 0.013 | 0.0435 ± 0.03 | 0.0495 ± 0.069 | 0.0075 ± 0.0092 | 0.006 ± 0.02 | 0.004 ± 0.023 | 0.0225 ± 0.015 | -0.012 ± 0.0042 | -0.017 ± 0.0085 | -0.0575 ± 0.015 | -0.056 ± 0.037 | -0.0215 ± 0.088 | 0.011 ± 0.045 | 0.043 ± 0.044 | 0.0595 ± 0.049
BF4T:PAI-I | 0.008 ± 0.0014 | 0 ± 0.0014 | 0.0025 ± 0.013 | 0.014 ± 0.0014 | -0.0105 ± 0.00071 | 0.007 ± 0.025 | 0.0055 ± 0.012 | -0.007 ± 0.0028 | -0.0095 ± 0.0035 | -0.02 ± 0.0042 | -0.006 ± 0.018 | -0.004 ± 0.02 | -0.008 ± 0.016 | 0.0115 ± 0.005 | 0.004 ± 0.0057 | 0.0125 ± 0.0035 | 0.0085 ± 0.018 | -0.005 ± 0.02 | -0.015 ± 0.011 | -0.001 ± 0.013
LPS:sTNF-alpha | 0.0115 ± 0.00071 | 0.0285 ± 0.011 | 0.021 ± 0.013 | -0.006 ± 0.0028 | -0.005 ± 0.0085 | 0.0245 ± 0.005 | -0.007 ± 0.011 | -0.025 ± 0.033 | 0.0005 ± 0.022 | -0.008 ± 0.016 | 0.0075 ± 0.029 | 0.018 ± 0.011 | 0.0125 ± 0.029 | -0.0015 ± 0.028 | -0.0215 ± 0.15 | -0.012 ± 0.13 | -0.031 ± 0.1 | -0.0235 ± 0.025 | -0.0435 ± 0.032 | -0.0335 ± 0.022
